Measured values from the NIST ThermoML archive (doi:10.1021/je900387e).

Assay: xn = mol fraction of the nth substance listed
Settings: Liquid, Pycnometric method

Cn1ccnc1 [1-methylimidazole] + O=C=O
Settings | mass density [kg/m3]
322.7 K, 12990 kPa, x1 = 0.0487 | 807
322.7 K, 13020 kPa, x1 = 0.0247 | 755
322.7 K, 13030 kPa, x1 = 0.0102 | 707
322.7 K, 13120 kPa, x1 = 0.0487 | 809
322.7 K, 13250 kPa, x1 = 0.0487 | 812
322.7 K, 13310 kPa, x1 = 0.0247 | 762
322.7 K, 13480 kPa, x1 = 0.0102 | 723
322.7 K, 13500 kPa, x1 = 0.0487 | 817
322.7 K, 13620 kPa, x1 = 0.0247 | 770
322.7 K, 13790 kPa, x1 = 0.0487 | 822
322.7 K, 13950 kPa, x1 = 0.0247 | 777
322.7 K, 14040 kPa, x1 = 0.0102 | 740
322.7 K, 14080 kPa, x1 = 0.0487 | 827
322.7 K, 14340 kPa, x1 = 0.0247 | 786
322.7 K, 14370 kPa, x1 = 0.0487 | 832
322.7 K, 14510 kPa, x1 = 0.0102 | 753
322.7 K, 14640 kPa, x1 = 0.1024 | 909
322.7 K, 14710 kPa, x1 = 0.0487 | 838
322.7 K, 14750 kPa, x1 = 0.0247 | 794
322.7 K, 14780 kPa, x1 = 0.1024 | 911
322.7 K, 14920 kPa, x1 = 0.1024 | 912
322.7 K, 15030 kPa, x1 = 0.1024 | 913
322.7 K, 15070 kPa, x1 = 0.0487 | 843
322.7 K, 15180 kPa, x1 = 0.1024 | 915
322.7 K, 15200 kPa, x1 = 0.0247 | 802
322.7 K, 15260 kPa, x1 = 0.0102 | 771
322.7 K, 15290 kPa, x1 = 0.1024 | 916
322.7 K, 15430 kPa, x1 = 0.0487 | 849
322.7 K, 15470 kPa, x1 = 0.1024 | 917
322.7 K, 15590 kPa, x1 = 0.1024 | 918
322.7 K, 15690 kPa, x1 = 0.0247 | 810
322.7 K, 15860 kPa, x1 = 0.0487 | 855
322.7 K, 15900 kPa, x1 = 0.1024 | 922
322.7 K, 16070 kPa, x1 = 0.0247 | 816
322.7 K, 16210 kPa, x1 = 0.0102 | 790
322.7 K, 16230 kPa, x1 = 0.1024 | 924
322.7 K, 16280 kPa, x1 = 0.0487 | 860
322.7 K, 16530 kPa, x1 = 0.1024 | 927
322.7 K, 16540 kPa, x1 = 0.0247 | 824
322.7 K, 16700 kPa, x1 = 0.0487 | 866
322.7 K, 16830 kPa, x1 = 0.0247 | 828
322.7 K, 16880 kPa, x1 = 0.1024 | 929
322.7 K, 17020 kPa, x1 = 0.0102 | 805
322.7 K, 17160 kPa, x1 = 0.0247 | 833
322.7 K, 17180 kPa, x1 = 0.1024 | 933
322.7 K, 17340 kPa, x1 = 0.1024 | 934
322.7 K, 17490 kPa, x1 = 0.0247 | 837
322.7 K, 17570 kPa, x1 = 0.1024 | 936
322.7 K, 17750 kPa, x1 = 0.1024 | 937
322.7 K, 17830 kPa, x1 = 0.0247 | 842
322.7 K, 17920 kPa, x1 = 0.1024 | 939
322.7 K, 17960 kPa, x1 = 0.0102 | 821
322.7 K, 18120 kPa, x1 = 0.1024 | 940
322.7 K, 18150 kPa, x1 = 0.0102 | 824
322.7 K, 18330 kPa, x1 = 0.1024 | 942
322.7 K, 18570 kPa, x1 = 0.1024 | 943
322.7 K, 18770 kPa, x1 = 0.1024 | 945
322.7 K, 18990 kPa, x1 = 0.1024 | 946
327.6 K, 11610 kPa, x1 = 0.0102 | 548
327.6 K, 11720 kPa, x1 = 0.0102 | 558
327.6 K, 11840 kPa, x1 = 0.0102 | 568
327.6 K, 11970 kPa, x1 = 0.0102 | 578
327.6 K, 12110 kPa, x1 = 0.0102 | 589
327.6 K, 12270 kPa, x1 = 0.0102 | 600
327.6 K, 12440 kPa, x1 = 0.0102 | 612
327.6 K, 12510 kPa, x1 = 0.0247 | 682
327.6 K, 12630 kPa, x1 = 0.0102 | 624
327.6 K, 12630 kPa, x1 = 0.0247 | 687
327.6 K, 12720 kPa, x1 = 0.0247 | 691
327.6 K, 12850 kPa, x1 = 0.0102 | 636
327.6 K, 12890 kPa, x1 = 0.0247 | 698
